The results in this text go back to patent publication US8242174B2 (priority 2007, dated 2012).

Where a name gives a salt, the structure may show the parent alone.

The target of this experiment is Lethal factor protease (Bacillus anthracis, UniProt P15917). Kind of experiment: biochemical.
Lethal factor protease, sequence (P15917 34-809 limits assumed): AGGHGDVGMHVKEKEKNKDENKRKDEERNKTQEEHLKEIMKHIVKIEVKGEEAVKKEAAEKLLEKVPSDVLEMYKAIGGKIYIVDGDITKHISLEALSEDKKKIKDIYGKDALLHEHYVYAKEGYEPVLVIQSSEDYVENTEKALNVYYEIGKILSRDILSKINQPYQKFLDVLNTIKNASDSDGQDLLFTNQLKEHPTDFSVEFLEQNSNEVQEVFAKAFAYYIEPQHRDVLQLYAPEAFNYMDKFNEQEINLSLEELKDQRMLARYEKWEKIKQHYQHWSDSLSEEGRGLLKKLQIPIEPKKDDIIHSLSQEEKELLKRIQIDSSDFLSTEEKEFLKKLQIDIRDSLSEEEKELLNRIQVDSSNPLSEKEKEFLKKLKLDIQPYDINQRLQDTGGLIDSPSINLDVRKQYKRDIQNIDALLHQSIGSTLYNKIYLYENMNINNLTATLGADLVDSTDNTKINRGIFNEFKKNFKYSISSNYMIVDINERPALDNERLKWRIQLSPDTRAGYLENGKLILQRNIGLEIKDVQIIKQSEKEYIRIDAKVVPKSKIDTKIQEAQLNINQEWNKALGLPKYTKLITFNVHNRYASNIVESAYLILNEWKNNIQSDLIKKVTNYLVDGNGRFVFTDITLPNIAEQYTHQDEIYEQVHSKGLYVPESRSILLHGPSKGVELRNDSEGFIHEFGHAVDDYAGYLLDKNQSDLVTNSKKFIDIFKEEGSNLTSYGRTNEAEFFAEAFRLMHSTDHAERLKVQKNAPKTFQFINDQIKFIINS

The compound `Cc1cc(N[C@H](C)C(=O)NO)cc(C)c1F` [Compound 167497, (R)-2-(4-Fluoro-3,5-dimethyl-phenylamino)-N-hydroxy-propionamide] returned an inhibitory constant (Ki) of 0.47 µM. `Cc1cc(NC(C)C(=O)NO)ccc1F` (stereo not shown) [Compound 167235, 2-(4-Fluoro-3-methyl-phenylamino)-N-hydroxy-propionamide]: the affinity, expressed as Ki, was 1.4 µM. The result for `CCCCC(Nc1cc(OC)cc(OC)c1)C(=O)NO` (stereo not shown) [Compound 167772, 2-(3,5-Dimethoxy-phenylamino)-hexanoic acid hydroxyamide] reads 257 µM; that for `Cc1cc(N[C@H](CCCCNCc2cc(C)c(OCc3ccccc3)c(C)c2)C(=O)NO)ccc1F` [Compound 167969, (R)-6-(4-Benzyloxy-3,5-dimethyl-benzylamino)-2-(4-fluoro-3-methyl-phenylamino)-hexanoic acid hydroxyamide], 0.27 µM; that for `CCCCC(Nc1cccc(C#N)c1)C(=O)NO` (stereo not shown) [Compound 167719, 2-(3-Cyano-phenylamino)-hexanoic acid hydroxyamide], 49 µM. In turn, `CCCCC(Nc1ccc(Cl)cc1)C(=O)NO` (stereo not shown) [Compound 167256, 2-(4-Chloro-phenylamino)-hexanoic acid hydroxyamide] registered a Ki of 187 µM. Compound `CCCC[C@@H](Nc1ccc(F)c(C)c1)C(=O)NO` [Compound 167273, (R)-2-(4-Fluoro-3-methyl-phenylamino)-hexanoic acid hydroxyamide] came in with a Ki of 0.71 µM. `Cc1cc(N[C@@H](C(=O)NO)C(C)C)ccc1F` [Compound 167267, (R)-2-(4-Fluoro-3-methyl-phenylamino)-N-hydroxy-3-methyl-butyramide hydrochloride] registered an inhibitory constant (Ki) of 15.7 µM. In turn, `CCCCC(Nc1cc(Cl)cc(Cl)c1)C(=O)NO` (stereo not shown) [Compound 167718, 2-(3,5-Dichloro-phenylamino)-hexanoic acid hydroxyamide] yielded an inhibitory constant (Ki) of 12.2 µM. Under `Cc1cc(CNCCCC[C@@H](Nc2ccc(F)c(C)c2)C(=O)NO)ccc1F` [Compound 167946, (R)-6-(4-Fluoro-3-methyl-benzylamino)-2-(4-fluoro-3-methyl-phenylamino)-hexanoic acid hydroxyamide] stands 0.06 µM.

As to `CCCCC(Nc1ccc(F)c(C#N)c1)C(=O)NO` (stereo not shown) [Compound 167720, 2-(3-Cyano-4-fluoro-phenylamino)-hexanoic acid hydroxyamide], the Ki is 11.8 µM. Turning to `CCCC[C@H](Nc1cc(C)c(F)c(C)c1)C(=O)NO` [Compound 167295, (S)-2-(4-Fluoro-3,5-dimethyl-phenylamino)-hexanoic acid hydroxyamide], the affinity corresponds to a Ki of 106 µM.

`Cc1cc(N[C@H](CCCCNCc2ccc(F)nc2)C(=O)NO)ccc1F` [Compound 167978, (R)-2-(4-Fluoro-3-methyl-phenylamino)-6-[(6-fluoro-pyridin-3-ylmethyl)-amino]-hexanoic acid hydroxyamide] had a Ki of 0.26 µM. The compound `Cc1cc(NC(CCC(F)(F)F)C(=O)NO)cc(C)c1F` (stereo not shown) [Compound 167482, 5,5,5-Trifluoro-2-(4-fluoro-3,5-dimethyl-phenylamino)-pentanoic acid hydroxyamide] displayed a Ki of 1.1 µM. As to `Cc1cccc(CN(CCCC[C@@H](Nc2cc(C)c(F)c(C)c2)C(=O)NO)Cc2cccc(C)c2)c1` [Compound 167932, (R)-6-[Bis-(3-methyl-benzyl)-amino]-2-(4-fluoro-3,5-dimethyl-phenylamino)-hexanoic acid hydroxyamide], the Ki worked out at 1.1 µM.

On to `Cc1cc(NCC(=O)NO)cc(C)c1F` [Compound 167452, 2-(4-Fluoro-3,5-dimethyl-phenylamino)-N-hydroxy-acetamide], for which the Ki was determined as 4 µM. Take `Cc1cc(N[C@H](CCCCN(Cc2ccccc2)Cc2ccccc2)C(=O)NO)ccc1F` [Compound 167982, (R)-6-Dibenzylamino-2-(4-fluoro-3-methyl-phenylamino)-hexanoic acid hydroxyamide]: the inhibition constant Ki was determined as 1.8 µM. The result for `CCCCC(Nc1cc(C)c(OC)c(C)c1)C(=O)NO` (stereo not shown) [Compound 167325, 2-(4-Methoxy-3,5-dimethyl-phenylamino)-hexanoic acid hydroxyamide] reads 30.4 µM; that for `Cc1cc(N[C@H](CCCCNS(=O)(=O)c2ccc(F)cc2)C(=O)NO)cc(C)c1F` [Compound 167589, (R)-6-(4-Fluoro-benzenesulfonylamino)-2-(4-fluoro-3,5-dimethyl-phenylamino)-hexanoic acid hydroxyamide], 1.25 µM. For the compound `Cc1cc(N[C@H](COCc2ccccc2)C(=O)NO)cc(C)c1F` [Compound 167379, (R)-3-Benzyloxy-2-(4-fluoro-3,5-dimethyl-phenylamino)-N-hydroxy-propionamide], affinity was put at a Ki of 1.44 µM.

On to `Cc1cc(NC(=O)NCCCC[C@@H](Nc2cc(C)c(F)c(C)c2)C(=O)NO)ccc1F` [Compound 167614, (R)-2-(4-Fluoro-3,5-dimethyl-phenylamino)-6-[3-(4-fluoro-3-methyl-phenyl)-ureido]-hexanoic acid hydroxyamide], for which the Ki was found to be 0.28 µM. With `CCCCC(Nc1cccc(Cl)c1)C(=O)NO` (stereo not shown) [Compound 167257, 2-(3-Chloro-phenylamino)-hexanoic acid hydroxyamide], the Ki stood at 61.5 µM. As for `CCCCC(Nc1cccc(OC)c1)C(=O)NO` (stereo not shown) [Compound 167276, 2-(3-Methoxy-phenylamino)-hexanoic acid hydroxyamide], the affinity, expressed as Ki, was 140 µM.

With `Cc1cc(NC(CCCC(F)(F)F)C(=O)NO)cc(C)c1F` (stereo not shown) [Compound 167483, 6,6,6-Trifluoro-2-(4-fluoro-3,5-dimethyl-phenylamino)-hexanoic acid hydroxyamide], the affinity corresponds to a Ki of 1.3 µM. Take `CCCCC(Nc1ccc(OC)cc1)C(=O)NO` (stereo not shown) [Compound 167275, 2-(4-Methoxy-phenylamino)-hexanoic acid hydroxyamide]: the inhibition constant Ki was found to be 88.1 µM.

`CNc1cccc(S(=O)(=O)NCCCC[C@@H](Nc2cc(C)c(F)c(C)c2)C(=O)NO)c1` [Compound 167667, (R)-2-(4-Fluoro-3,5-dimethyl-phenylamino)-6-(3-methylamino-benzenesulfonylamino)-hexanoic acid hydroxyamide]: the Ki turned out to be 0.59 µM. Turning to `CCCCC(Nc1cccc(-c2ccccc2)c1)C(=O)NO` (stereo not shown) [Compound 167202, 2-(Biphenyl-3-ylamino)-hexanoic acid hydroxyamide], the Ki was 236 µM. Under `Cc1cc(N[C@H](CCCCNCc2ccc(Cl)cc2)C(=O)NO)ccc1F` [Compound 168181, (R)-6-(4-Chloro-benzylamino)-2-(4-fluoro-3-methyl-phenylamino)-hexanoic acid hydroxyamide] stands 0.19 µM; under `Cc1cc(N[C@H](CCCCNC(=O)CCCc2ccccc2)C(=O)NO)ccc1F` [Compound 167994, (R)-2-(4-Fluoro-3-methyl-phenylamino)-6-(4-phenyl-butyrylamino)-hexanoic acid hydroxyamide], 0.65 µM; under `Cc1cc(N[C@H](CCCCN(Cc2cc(C)c(F)c(C)c2)Cc2cc(C)c(F)c(C)c2)C(=O)NO)ccc1F` [Compound 167971, (R)-6-[Bis-(4-fluoro-3,5-dimethyl-benzyl)-amino]-2-(4-fluoro-3-methyl-phenylamino)-hexanoic acid hydroxyamide], 5.2 µM.

`Cc1cc(N[C@@H](C(=O)NO)C(C)C)cc(C)c1F` [Compound 167264, (R)-2-(4-Fluoro-3,5-dimethyl-phenylamino)-N-hydroxy-3-methyl-butyramide] registered a Ki of 3.1 µM.
